Results on 8 compounds are retold here after ChEMBL document CHEMBL2177008, “Discovery of benzodiazepine sulfonamide-based bombesin receptor subtype 3 agonists and their unusual chirality” (ACS Med Chem Lett, 2011).

A short description of series [1]: Oral bioavailability in Sprague-Dawley rat at 4 mg/kg. It counts as ADME, organism-based. The settings on record: in vivo.
A further series concerns Rattus norvegicus. Description: Dose normalized AUC in Sprague-Dawley rat at 4 mg/kg, po. It is filed as ADME, organism-based. Set-up: dose 4 mg/kg, route oral. The settings on record: in vivo.
Series [2] in a line: Half life in Sprague-Dawley rat at 1 mg/kg, iv. It is filed as ADME, organism-based. Also on record: dose 1 mg/kg, route intravenous. The note with it: in vivo.
The nature of series [3]: Plasma clearance in Sprague-Dawley rat at 1 mg/kg, iv. It counts as ADME, organism-based. Also on record: dose 1 mg/kg, route intravenous.
The target in series [4] is T1, Bombesin receptor subtype-3 (Mus musculus) (UniProt O54798).
T1 sequence (whole entry): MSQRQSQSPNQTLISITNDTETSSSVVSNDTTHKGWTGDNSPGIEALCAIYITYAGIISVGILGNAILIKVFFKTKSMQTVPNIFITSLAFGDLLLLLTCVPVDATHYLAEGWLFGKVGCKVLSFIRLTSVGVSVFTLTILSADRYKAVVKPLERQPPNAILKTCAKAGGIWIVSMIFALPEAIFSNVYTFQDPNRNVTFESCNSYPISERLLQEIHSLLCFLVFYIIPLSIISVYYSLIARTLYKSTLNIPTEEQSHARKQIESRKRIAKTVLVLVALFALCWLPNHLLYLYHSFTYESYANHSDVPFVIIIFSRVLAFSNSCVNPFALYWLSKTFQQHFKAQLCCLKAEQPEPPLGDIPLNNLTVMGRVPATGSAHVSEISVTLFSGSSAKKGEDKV
Description: Agonist activity at mouse BRS3 expressed in HEK293 cells expressing aequorin measured for 30 secs by bioluminescence assay relative to [125I]-[D-Tyr6,beta-Ala11,Phe13,Nle14]-Bombesin(6-14). It counts as functional, cell-based.

Series [5] deals with T2, Bombesin receptor subtype-3 (Mus musculus, UniProt O54798).
T2 sequence (O54798 whole entry): T1 sequence (whole entry)
The experiment in a line: Agonist activity at mouse BRS3 expressed in HEK293 cells expressing aequorin measured for 30 secs by bioluminescence assay. It is filed as functional, cell-based.

The target in series [6] is T3, Bombesin receptor subtype-3 (Homo sapiens, UniProt P32247).
T3 sequence (P32247 whole entry): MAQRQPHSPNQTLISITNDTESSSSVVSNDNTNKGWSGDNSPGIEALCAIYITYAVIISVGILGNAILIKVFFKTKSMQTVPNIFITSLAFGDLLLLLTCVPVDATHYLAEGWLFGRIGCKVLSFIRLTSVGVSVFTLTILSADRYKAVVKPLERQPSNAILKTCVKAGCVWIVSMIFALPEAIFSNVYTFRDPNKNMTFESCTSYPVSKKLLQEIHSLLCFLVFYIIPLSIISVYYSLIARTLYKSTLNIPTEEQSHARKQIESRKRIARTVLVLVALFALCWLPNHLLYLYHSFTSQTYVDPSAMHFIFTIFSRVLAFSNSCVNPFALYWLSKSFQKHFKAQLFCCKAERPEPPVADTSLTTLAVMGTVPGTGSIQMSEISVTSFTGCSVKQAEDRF
Description: Agonist activity at human BRS3 expressed in HEK293 cells expressing aequorin measured for 30 secs by bioluminescence assay. It counts as functional, cell-based.

Series [7] addresses T3, Bombesin receptor subtype-3. The experiment in a line: Displacement of [125I]-[D-Tyr6,beta-Ala11,Phe13,Nle14]-Bombesin(6-14) from human BRS3 expressed in CHO cells expressing NFAT after 2 hrs by liquid scintillation counting. It counts as cell-based. On the technique in general: Loss of bound radioactivity is the signal in a displacement assay; it reports binding, not function.

Series [8] in a line: Displacement of [125I]-[D-Tyr6,beta-Ala11,Phe13,Nle14]-Bombesin(6-14) from dog BRS3. Set-up: species or system Canis lupus familiaris.
Series [9] in a line: Half life in rhesus monkey. It counts as ADME, organism-based, Macaca mulatta. The note with it: in vivo.
Series [10] in a line: Oral bioavailability in rhesus monkey. The settings on record: in vivo. It counts as ADME, organism-based, Macaca mulatta.
Series [11] deals with T3, Bombesin receptor subtype-3. The experiment in a line: Agonist activity at human BRS3 expressed in HEK293 cells expressing aequorin measured for 10 mins by bioluminescence assay.
Series [12] in a line: Inhibition of calcium channel Diltiazem hydrochloride binding site.
Series [13] concerns Mus musculus. Description: Antiobesity activity in diet-induced obese […] knock-out C57 mouse assessed as reduction in food intake at 3 and 30 mg/kg, po administered 60 mins prior to dark cycle onset measured after 18 hrs. It counts as functional, organism-based. Set-up: dose 30 mg/kg.
Series [14] relates to Mus musculus. Description: Antiobesity activity in po dosed diet-induced obese wild type C57 mouse assessed as body weight loss administered 60 mins prior to dark cycle onset measured after 18 hrs. It counts as functional, organism-based.
In series [15] the test system is Mus musculus. The experiment in a line: Antiobesity activity in po dosed diet-induced obese wild type C57 mouse assessed as reduction in food intake administered 60 mins prior to dark cycle onset measured after 18 hrs. It counts as functional, organism-based.
Another series has as its target T4, PXR (Homo sapiens, UniProt O75469).
T4 sequence (O75469 whole entry): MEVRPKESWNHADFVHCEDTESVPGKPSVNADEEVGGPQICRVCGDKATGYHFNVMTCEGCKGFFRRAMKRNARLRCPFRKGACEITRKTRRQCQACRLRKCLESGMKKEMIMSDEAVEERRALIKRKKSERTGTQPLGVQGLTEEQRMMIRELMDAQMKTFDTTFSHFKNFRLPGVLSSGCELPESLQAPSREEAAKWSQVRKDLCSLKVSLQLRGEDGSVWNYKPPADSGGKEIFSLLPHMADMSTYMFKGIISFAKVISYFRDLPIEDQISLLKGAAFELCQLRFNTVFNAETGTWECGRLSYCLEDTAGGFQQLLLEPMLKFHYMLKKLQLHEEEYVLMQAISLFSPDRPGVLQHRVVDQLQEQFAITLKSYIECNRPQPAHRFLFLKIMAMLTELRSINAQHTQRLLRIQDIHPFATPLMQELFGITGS
The experiment in a line: Activation of human PXR at 10 uM relative to control. The settings on record: read-out: Activity.

For series [16], the target named is T5, Nuclear receptor subfamily 1 group I member 2 (Homo sapiens, UniProt O75469).
T5 sequence (O75469 whole entry): T4 sequence (O75469 whole entry)
The experiment in a line: Activation of human PXR.

Series [17] addresses Voltage-gated inwardly rectifying potassium channel KCNH2 (Homo sapiens, UniProt Q12809). The experiment in a line: Inhibition of human ERG.
For the next series, the species on record is Macaca mulatta. Description: Agonist activity at rhesus monkey BRS3 relative to [125I]-[D-Tyr6,beta-Ala11,Phe13,Nle14]-Bombesin(6-14). It counts as functional.
Series [18] is described as follows: Agonist activity at rhesus monkey BRS3. It is filed as functional, Macaca mulatta.
The nature of series [19]: Displacement of [125I]-[D-Tyr6,beta-Ala11,Phe13,Nle14]-Bombesin(6-14) from rhesus monkey BRS3. Set-up: species or system Macaca mulatta.
The species named for the next series is Canis lupus familiaris. Description: Agonist activity at dog BRS3 relative to [125I]-[D-Tyr6,beta-Ala11,Phe13,Nle14]-Bombesin(6-14). It counts as functional.
The nature of series [20]: Agonist activity at dog BRS3. It is filed as functional, Canis lupus familiaris.
The test system of series [21] is Mus musculus. Description: Antiobesity activity in diet-induced obese wild type C57 mouse assessed as weight loss at 3 mg/kg, po administered QD 60 mins prior to dark cycle onset relative to control. It is filed as functional.

SMILES strings stand for the structures. Calls of active or inactive are those of the source. The calls are words filed in the database; no cut-off is given here.

Sequence of Voltage-gated inwardly rectifying potassium channel KCNH2 (Q12809 whole entry): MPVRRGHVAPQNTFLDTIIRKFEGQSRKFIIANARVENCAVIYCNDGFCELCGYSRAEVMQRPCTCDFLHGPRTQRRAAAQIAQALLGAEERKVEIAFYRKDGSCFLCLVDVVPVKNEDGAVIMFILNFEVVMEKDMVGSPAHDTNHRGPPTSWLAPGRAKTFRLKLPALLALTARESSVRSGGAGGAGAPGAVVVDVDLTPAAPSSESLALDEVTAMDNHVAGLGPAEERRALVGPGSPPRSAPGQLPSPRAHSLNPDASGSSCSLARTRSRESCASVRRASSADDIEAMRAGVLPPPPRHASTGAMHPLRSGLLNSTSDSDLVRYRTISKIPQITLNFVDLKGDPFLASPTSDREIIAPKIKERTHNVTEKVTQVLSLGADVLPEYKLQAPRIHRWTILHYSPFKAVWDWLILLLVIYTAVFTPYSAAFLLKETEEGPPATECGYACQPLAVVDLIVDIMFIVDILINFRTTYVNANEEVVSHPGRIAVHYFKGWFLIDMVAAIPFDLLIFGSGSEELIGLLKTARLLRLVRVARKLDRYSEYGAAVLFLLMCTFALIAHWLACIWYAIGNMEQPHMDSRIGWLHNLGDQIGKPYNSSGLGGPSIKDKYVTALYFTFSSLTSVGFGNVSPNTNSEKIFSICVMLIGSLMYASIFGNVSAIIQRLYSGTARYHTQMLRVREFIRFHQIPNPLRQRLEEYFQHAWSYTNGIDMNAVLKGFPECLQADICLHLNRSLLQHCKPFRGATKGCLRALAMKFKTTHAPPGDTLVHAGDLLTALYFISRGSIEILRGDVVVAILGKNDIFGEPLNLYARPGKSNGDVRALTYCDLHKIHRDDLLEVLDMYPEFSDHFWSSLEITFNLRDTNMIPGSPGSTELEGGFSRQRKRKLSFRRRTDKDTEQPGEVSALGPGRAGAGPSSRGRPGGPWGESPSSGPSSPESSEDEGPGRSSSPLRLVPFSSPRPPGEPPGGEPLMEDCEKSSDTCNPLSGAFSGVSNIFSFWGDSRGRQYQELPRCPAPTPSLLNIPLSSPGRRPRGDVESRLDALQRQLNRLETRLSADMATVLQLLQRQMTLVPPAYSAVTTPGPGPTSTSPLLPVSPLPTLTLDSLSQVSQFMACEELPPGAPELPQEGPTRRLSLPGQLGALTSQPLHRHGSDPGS

Turning to `CC(C)(C)c1ccc(S(=O)(=O)N2Cc3ccc(C(F)(F)F)nc3Nc3ccc(C(C)(C)O)c(F)c32)cc1`, in [1], the bioavailability stood at 13%. Further, the AUC/dose with Rattus norvegicus is 0.19 µM·kg·h/mg. The same compound gave a half-life in series [2] of 3 h. The compound also had a clearance in series [3] of 24 mL/min/kg. The same compound came in with a max activation in series [4] of 97%. Further, the results for the concentration giving a half-maximal response (EC50) in series [5] and in [6] were 134 nM and 77 nM, respectively. This compound also came in with an IC50 in [7] of 5 nM.

As for `Cc1cccc2c1N(S(=O)(=O)c1ccc(C(C)(C)C)cc1)Cc1ccc(C(F)(F)F)nc1N2`, the bioavailability in [1] was found to be 14%. This compound also returned an AUC/dose in the series with Rattus norvegicus of 0.13 µM·kg·h/mg. Also, the half-life in series [2] was 1.6 h. Moreover, the clearance in [3] is 38 mL/min/kg. In [4], this compound had a max activation of 106%. Besides, the EC50 was 120 nM in series [5] and 50 nM in series [6]. This compound registered a half-inhibitory concentration (IC50) in [7] of 0.9 nM.

Take `Cc1ccc2c(c1)N(S(=O)(=O)c1ccc(C(C)(C)C)cc1)Cc1ccc(C(F)(F)F)nc1N2`: the bioavailability in series [1] turned out to be 22%. In the series with Rattus norvegicus, this compound yielded an AUC/dose of 0.31 µM·kg·h/mg. In [2], this compound showed a half-life of 2.2 h. Also, the clearance in series [3] came to 24 mL/min/kg. Moreover, the max activation in series [4] stood at 82%. Also, the EC50 in [5] amounted to 377 nM; in series [6], 199 nM. Also, the IC50 in series [7] turned out to be 5.8 nM.

In series [1], `Cc1ccc2c(c1C)N(S(=O)(=O)c1ccc(C(C)C)cc1)Cc1ccc(C(F)(F)F)nc1N2` yielded a bioavailability of 10%. This compound returned an AUC/dose in the series with Rattus norvegicus of 0.24 µM·kg·h/mg. In series [2], this compound showed a half-life of 3.5 h. Besides, the clearance in series [3] was found to be 16 mL/min/kg. The max activation in [4] was found to be 110%. Also, the EC50 was determined as 84 nM in series [5] and 49 nM in [6]. The same compound gave a half-inhibitory concentration (IC50) in series [7] of 1.6 nM.

In the case of `Cc1ccc2c(c1C)N(S(=O)(=O)c1ccc(C(C)(C)C)cc1)Cc1ccc(C(F)(F)F)nc1N2`, the IC50 in [8] was 1.6 nM; in series [12], over 10000 nM; in [17], over 10000 nM; in [19] it was 3 nM. In addition, the half-life was 1.8 h in [9] and 1.6 h in series [2]. The bioavailability in series [10] is 17%; in [1], 15%. The AUC/dose with Rattus norvegicus stood at 0.2 µM·kg·h/mg. The clearance in [3] turned out to be 29 mL/min/kg. The max activation in series [4] worked out at 98%; in the series listed under Macaca mulatta it was 97%; in the series filed under Canis lupus familiaris, 97%. The EC50 came out at 15 nM in series [11], 678 nM in [16], 70 nM in [18] and 36 nM in series [20]. Also, the Activity entry in the series on Mus musculus [13] was “inactive”. The Activity entry in the series on Mus musculus [14] and with Mus musculus [15] was “Dose-dependent effect” throughout. Further, at PXR, the activity at 10 µM came to 42%.

For the compound `Cc1c(C(=O)NN2CCCCC2)nn(-c2ccc(Cl)cc2Cl)c1-c1ccc(I)cc1`, the Activity in the series on Mus musculus [21] came to 6.2%.

In series [1], `Cc1ccc2c(c1C)N(S(=O)(=O)c1ccc(C(C)(C)C)cc1)Cc1cccnc1N2` showed a bioavailability of 1%. This compound came in with an AUC/dose in the series with Rattus norvegicus of 0.007 µM·kg·h/mg. This compound also had a half-life in [2] of 1.6 h. In addition, in series [3], the clearance is 164 mL/min/kg. This compound also showed a max activation in series [4] of 101%. The EC50 in [5] was determined as 248 nM; in [6] it was 325 nM. In series [7], this compound returned an IC50 of 40 nM.

`CC(C)(C)c1ccc(S(=O)(=O)N2Cc3ccc(C(F)(F)F)nc3Nc3cccc(Cl)c32)cc1` had a bioavailability in series [1] of 34%. Further, the AUC/dose with Rattus norvegicus is 0.26 µM·kg·h/mg. The compound further gave a half-life in series [2] of 1.4 h. In [3], the clearance is 46 mL/min/kg. For the same compound, the max activation in series [4] was determined as 100%. For the same compound, the EC50 in series [5] is 155 nM; in [6], 63 nM. Further, the IC50 in [7] stood at 3.2 nM.

The term bioavailability denotes the share of a dose that reaches the circulation, judged against a reference dose that is usually intravenous. The half-life is how long it takes for the measured level to halve. The clearance is the volume of plasma or blood freed of the substance per unit of time. For orientation: EC50 means the concentration giving half of the maximal effect. What is called IC50 is the concentration needed to halve the response being measured.
